Legend:
[1] = target: eqBuChE (Equus caballus, UniProt P81908); experiment: BuChE inhibition, Ellman's assay; assay type: biochemical, equine; details: for IC50: IC50 ± SD eqBuChE; for SI: Selectivity Index, eeAChE and eqBuChE
[2] = target: eeAChE (Electrophorus electricus, UniProt O42275); experiment: AChE inhibition, Ellman's assay; assay type: biochemical
[3] = target: huBuChE (Homo sapiens, UniProt P06276); experiment: BuChE inhibition, Ellman's assay; assay type: biochemical; details: for SI: Selectivity Index, huAChE and huBuChE
[4] = target: huAChE (Homo sapiens, UniProt P22303); experiment: AChE inhibition, Ellman's assay; assay type: biochemical
[5] = system: scopolamine-induced mice; experiment: Scopolamine-induced mice dysmnesia, step-down passive avoidance task; assay type: in vivo, Kunming mice
[6] = system: APP/PS1 double-transgenic mice; experiment: APP/PS1 mice, Morris Water Maze and tissue analyses; assay type: in vivo
[7] = system: AlCl3-induced zebrafish AD model; experiment: AlCl3-induced zebrafish AD model; assay type: in vivo; details: donepezil 3.0 μg/mL
[8] = system: BuChE; experiment: Reversibility of BuChE inhibition; assay type: biochemical; details: 0.1 × IC50, 120 min
[9] = plasma, donepezil 2.0 mg/kg, 8e 2.6 mg/kg

Chain of eqBuChE (P81908 whole entry): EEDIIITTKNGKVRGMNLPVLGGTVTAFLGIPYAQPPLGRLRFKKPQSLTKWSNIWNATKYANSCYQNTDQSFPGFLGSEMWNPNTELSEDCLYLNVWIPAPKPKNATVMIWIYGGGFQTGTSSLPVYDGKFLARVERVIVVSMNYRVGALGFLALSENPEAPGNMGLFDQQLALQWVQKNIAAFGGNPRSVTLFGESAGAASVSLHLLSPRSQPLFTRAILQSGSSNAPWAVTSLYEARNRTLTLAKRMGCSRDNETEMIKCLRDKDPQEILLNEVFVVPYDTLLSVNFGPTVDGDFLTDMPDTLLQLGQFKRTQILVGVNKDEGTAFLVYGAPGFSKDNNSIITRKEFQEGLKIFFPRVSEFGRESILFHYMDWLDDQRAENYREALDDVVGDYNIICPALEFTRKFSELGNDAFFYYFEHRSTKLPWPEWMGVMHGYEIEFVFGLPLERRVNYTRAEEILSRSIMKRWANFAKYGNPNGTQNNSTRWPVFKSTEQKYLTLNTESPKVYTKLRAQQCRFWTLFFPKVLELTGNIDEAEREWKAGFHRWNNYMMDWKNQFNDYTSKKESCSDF
Chain of huBuChE (P06276 29-602): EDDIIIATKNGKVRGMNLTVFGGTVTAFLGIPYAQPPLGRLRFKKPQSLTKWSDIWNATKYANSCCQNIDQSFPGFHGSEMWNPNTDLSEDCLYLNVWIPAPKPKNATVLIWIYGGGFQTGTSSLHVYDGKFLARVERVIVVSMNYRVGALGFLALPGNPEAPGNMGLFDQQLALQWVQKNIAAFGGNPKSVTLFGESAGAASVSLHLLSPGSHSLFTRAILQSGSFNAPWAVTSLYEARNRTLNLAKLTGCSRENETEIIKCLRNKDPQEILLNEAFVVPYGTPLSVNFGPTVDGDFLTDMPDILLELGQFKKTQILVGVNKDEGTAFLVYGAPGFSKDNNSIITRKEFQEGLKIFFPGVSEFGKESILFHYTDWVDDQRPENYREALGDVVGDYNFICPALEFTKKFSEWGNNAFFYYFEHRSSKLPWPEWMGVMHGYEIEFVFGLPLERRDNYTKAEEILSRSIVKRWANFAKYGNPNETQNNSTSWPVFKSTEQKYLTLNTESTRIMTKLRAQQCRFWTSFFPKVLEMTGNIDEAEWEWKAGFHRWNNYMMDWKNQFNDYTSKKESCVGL
Chain of eeAChE (O42275 24-633): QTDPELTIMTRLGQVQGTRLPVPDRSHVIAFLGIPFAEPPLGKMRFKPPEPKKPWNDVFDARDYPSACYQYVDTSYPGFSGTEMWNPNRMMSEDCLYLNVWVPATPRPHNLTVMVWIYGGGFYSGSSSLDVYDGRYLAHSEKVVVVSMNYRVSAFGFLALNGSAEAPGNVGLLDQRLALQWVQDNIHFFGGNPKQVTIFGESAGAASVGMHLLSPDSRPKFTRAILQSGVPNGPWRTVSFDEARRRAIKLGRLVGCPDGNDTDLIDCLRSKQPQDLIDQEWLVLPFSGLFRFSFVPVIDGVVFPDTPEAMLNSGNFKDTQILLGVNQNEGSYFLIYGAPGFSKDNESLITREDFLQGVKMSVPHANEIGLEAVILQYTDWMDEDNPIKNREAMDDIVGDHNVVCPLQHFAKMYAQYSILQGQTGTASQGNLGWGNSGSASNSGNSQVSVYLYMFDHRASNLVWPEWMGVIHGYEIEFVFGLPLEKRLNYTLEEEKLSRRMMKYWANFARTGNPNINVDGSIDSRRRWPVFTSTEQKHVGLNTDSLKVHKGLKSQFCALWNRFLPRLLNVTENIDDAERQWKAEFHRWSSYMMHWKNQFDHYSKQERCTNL
Chain of huAChE (P22303 32-617 isoform P22303-2 limits assumed): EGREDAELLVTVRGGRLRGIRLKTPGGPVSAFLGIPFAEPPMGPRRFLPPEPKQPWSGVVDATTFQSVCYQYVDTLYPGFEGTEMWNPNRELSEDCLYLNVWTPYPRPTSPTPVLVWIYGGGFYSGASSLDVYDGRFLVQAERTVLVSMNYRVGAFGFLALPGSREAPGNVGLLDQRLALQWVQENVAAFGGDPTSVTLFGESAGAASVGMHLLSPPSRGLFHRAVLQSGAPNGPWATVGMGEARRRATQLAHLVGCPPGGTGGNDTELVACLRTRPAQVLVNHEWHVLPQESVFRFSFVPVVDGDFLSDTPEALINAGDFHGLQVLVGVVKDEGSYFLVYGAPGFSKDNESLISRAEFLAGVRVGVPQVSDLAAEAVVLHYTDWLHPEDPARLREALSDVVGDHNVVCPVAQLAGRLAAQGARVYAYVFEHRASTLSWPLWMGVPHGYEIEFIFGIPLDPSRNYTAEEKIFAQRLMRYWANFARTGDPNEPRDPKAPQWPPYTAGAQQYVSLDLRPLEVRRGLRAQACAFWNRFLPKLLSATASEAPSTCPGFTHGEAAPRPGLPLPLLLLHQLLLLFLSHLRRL

SMILES	IC50 [1] [µM]	SI [1]	IC50 [2] [µM]	other results
COc1cc(C(=O)N2CCC(Cc3ccccc3)CC2)ccc1OCCCCN1CCC(Cc2ccccc2)CC1 [7a]	0.66 ± 0.03	8.9	5.9 ± 0.36	
COc1cc(C(=O)N2CCC(Cc3ccccc3)CC2)ccc1OCCCCN1CCN(Cc2ccccc2)CC1 [7b]	3.1 ± 0.12	2.5	7.9 ± 0.25	
COc1cc(C(=O)N2CCC(Cc3ccccc3)CC2)ccc1OCCCCN1CCC(CCCc2ccccc2)CC1 [7c]	1.1 ± 0.06	3.1	3.4 ± 0.13	
COc1cc(C(=O)N2CCC(Cc3ccccc3)CC2)ccc1OCCCCN1CCc2ccccc2C1 [7d]	0.85 ± 0.02	3.6	3.1 ± 0.15	
CCN(CCCCOc1ccc(C(=O)N2CCC(Cc3ccccc3)CC2)cc1OC)Cc1ccccc1 [7e]	0.47 ± 0.05	6.0	2.8 ± 0.13	IC50 [3]: 0.87 ± 0.23 µM; SI [3]: 4.5; IC50 [4]: 3.9 ± 0.44 µM
CCN(CC)CCCCOc1ccc(C(=O)N2CCC(Cc3ccccc3)CC2)cc1OC [7f]	6.4 ± 0.24	1.3	8.6 ± 0.32	
COc1cc(C(=O)N2CCC(Cc3ccccc3)CC2)ccc1OCCCCN1CC(C)CC(C)C1 (stereo not shown) [7g]	3.7 ± 0.24	0.6	2.3 ± 0.12	
CCN(CCCCOc1c(OC)cc(C(=O)NC2CCN(Cc3ccccc3)CC2)cc1OC)Cc1ccccc1 [7i]	2.6 ± 0.12	2.2	5.7 ± 0.03	
CCN(CCCCOc1c(OC)cc(C(=O)N2CCN(c3ccc(F)cc3)CC2)cc1OC)Cc1ccccc1 [7j]	6.3 ± 0.32	1.1	6.9 ± 0.04	
COc1cc(CCC(=O)N2CCC(Cc3ccccc3)CC2)ccc1OCCCCN1CCC(Cc2ccccc2)CC1 [8a]	0.093 ± 0.005	18	1.7 ± 0.01	IC50 [3]: 0.16 ± 0.43 µM; SI [3]: 37; IC50 [4]: 5.9 ± 0.26 µM
COc1cc(CCC(=O)N2CCC(Cc3ccccc3)CC2)ccc1OCCCCN1CCN(Cc2ccccc2)CC1 [8b]	3.3 ± 0.13	1.8	5.8 ± 0.35	
COc1cc(CCC(=O)N2CCC(Cc3ccccc3)CC2)ccc1OCCCCN1CCC(CCCc2ccccc2)CC1 [8c]	0.063 ± 0.005	67	4.2 ± 0.26	IC50 [3]: 0.082 ± 0.007 µM; SI [3]: 82; IC50 [4]: 6.7 ± 0.16 µM
COc1cc(CCC(=O)N2CCC(Cc3ccccc3)CC2)ccc1OCCCCN1CCc2ccccc2C1 [8d]	0.087 ± 0.002	71	6.2 ± 0.12	IC50 [3]: 0.097 µM; SI [3]: 89; IC50 [4]: 8.6 ± 0.33 µM
CCN(CC)CCCCOc1ccc(CCC(=O)N2CCC(Cc3ccccc3)CC2)cc1OC [8f]	0.28 ± 0.02	30	8.4 ± 0.53	
COc1cc(CCC(=O)N2CCC(Cc3ccccc3)CC2)ccc1OCCCCN1CC(C)CC(C)C1 (stereo not shown) [8g]	0.75 ± 0.02	8.7	6.5 ± 0.33	
COc1cc(CCC(=O)N2CCC(Cc3ccccc3)CC2)ccc1OCCCCN1CCC(c2ccccc2)CC1 [8h]	0.13 ± 0.08	36	4.7 ± 0.28	IC50 [3]: 0.19 ± 0.19 µM; SI [3]: 36; IC50 [4]: 6.9 ± 0.14 µM
COc1cc(CCC(=O)N2CCC(Cc3ccccc3)CC2)ccc1OCCCCN1CCC(C(=O)c2ccc(F)cc2)CC1 [8j]	0.31 ± 0.12	16	4.9 ± 0.18	
COc1cc(CCC(=O)N2CCC(Cc3ccccc3)CC2)ccc1OCCCCN1CCC(c2noc3ccccc23)CC1 [8k]	0.25 ± 0.02	22	5.5 ± 0.23	
COc1cc(CCC(=O)N2CCC(Cc3ccccc3)CC2)ccc1OC(=O)CCCCN1CCC(Cc2ccccc2)CC1 [9a]	0.82 ± 0.03	8.7	7.1 ± 0.15	
COc1cc(CCC(=O)N2CCC(Cc3ccccc3)CC2)ccc1OC(=O)CCCCN1CCN(Cc2ccccc2)CC1 [9b]	1.7 ± 0.06	1.1	1.9 ± 0.11	
COc1cc(CCC(=O)N2CCC(Cc3ccccc3)CC2)ccc1OC(=O)CCCCN1CCC(CCCc2ccccc2)CC1 [9c]	0.73 ± 0.23	11	8.1 ± 0.43	
CCN(CCOc1ccc(CCC(=O)N2CCC(Cc3ccccc3)CC2)cc1OC)Cc1ccccc1 [10a]	0.22 ± 0.03	16	3.6 ± 0.02	
CCN(CCCOc1ccc(CCC(=O)N2CCC(Cc3ccccc3)CC2)cc1OC)Cc1ccccc1 [10b]	0.068 ± 0.005	128	8.7 ± 0.01	IC50 [3]: 0.091 ± 0.008 µM; SI [3]: 65; IC50 [4]: 5.9 ± 0.26 µM
CCN(CCCCCOc1ccc(CCC(=O)N2CCC(Cc3ccccc3)CC2)cc1OC)Cc1ccccc1 [10c]	0.077 ± 0.002	81	6.2 ± 0.12	IC50 [3]: 0.11 µM; SI [3]: 78; IC50 [4]: 8.6 ± 0.33 µM
CCN(CCCCCCOc1ccc(CCC(=O)N2CCC(Cc3ccccc3)CC2)cc1OC)Cc1ccccc1 [10d]	0.12 ± 0.003	38	4.6 ± 0.03	
CCN(CCCCCCCCCOc1ccc(CCC(=O)N2CCC(Cc3ccccc3)CC2)cc1OC)Cc1ccccc1 [10e]	0.28 ± 0.02	30	8.4 ± 0.53	
CCN(CCCCCCCCCCOc1ccc(CCC(=O)N2CCC(Cc3ccccc3)CC2)cc1OC)Cc1ccccc1 [10f]	0.59 ± 0.08	8.0	4.7 ± 0.28	
COc1cc2c(cc1OC)C(=O)C(CC1CCN(Cc3ccccc3)CC1)C2 (stereo not shown) [Donepezil]				latency time ([5]; 5.0 mg/kg): 163.87 s; number of errors ([5]; 5.0 mg/kg): 0.1; neuronal apoptosis in the hippocampus ([5]; TUNEL staining, donepezil 5.0 mg/kg, 8e 6.5 mg/kg): significantly reduced; levels of IL-1β, IL-6, and TNF-α in the cerebral cortex ([5]; immunohistochemistry, donepezil 5.0 mg/kg, 8e 6.5 mg/kg): significant reduction; ACh levels ([6]; ELISA, cerebral cortex): remarkable increase; Aβ1–42 levels ([6]; ELISA, cerebral cortex): significantly reduced; IL-1β levels ([6]; ELISA, cerebral cortex): significantly reduced; IL-6 levels ([6]; ELISA, cerebral cortex): significantly reduced; TNF-α levels ([6]; ELISA, cerebral cortex): significantly reduced; neuronal abnormalities within cerebral cortex and hippocampus ([6]; HE staining, donepezil 2 mg/kg, 8e 2.6 mg/kg): marked decrease; escape latency ([6]; MWM, vs model group): significantly decreased; Aβ1–42 levels ([6]; immunofluorescence staining, cerebral cortex, donepezil 2.0 mg/kg, 8e 2.6 mg/kg): significant reduction; TG levels ([6]; plasma): significant decrease; LDL-c levels [6, 9]: significantly reduced; TC levels [6, 9]: significantly reduced; number of apoptotic cells ([7]; HE staining, 8e 0.1, 0.25, and 0.5 μg/mL): significantly reduced; swimming distance/swimming speed ([7]; 8e 0.1 and 0.25 μg/mL): significantly increased; reaction capacity ([7]; 8e 0.1 and 0.25 μg/mL, transition from dark to light): significantly enhanced
CCN(C)C(=O)Oc1cccc([C@H](C)N(C)C)c1 [Rivastigmine]				recovery of BuChE activity / reversibility [8]: remained relatively unchanged
